Reference: PubChem BioAssay AID1918958 (Molecular Pharmacology Branch, DTP, NCI, 2023)
pIC50: −log10 of the molar value.

System: NCI-H196 complex spheroid viability
Test: Anticancer human tumor NCI-H196 cell line growth inhibition [LSD1];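 note: spheroids exposed to agents for 7 days before readout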;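 for viability, T/C: 100% = DMSO vehicle control viability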
Conditions: for pIC50: curve of first compound; for viability, T/C: stronger effect = lower value
Outline: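 Drug combinations with the LSD1 inhibitor iadademstat tested on tumor cells co-cultured as spheroids with endothelial cells and mesenchymal stem cells. Concentrations descended in half-log increments from clinical Cmax or 10 microM.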

[1] = second compound 0.1 µM, first compound 0.000949 µM
[2] = second compound 0.1 µM, first compound 0.003 µM
[3] = second compound 0.1 µM, first compound 0.00949 µM
[4] = second compound 0.1 µM, first compound 0.03 µM
[5] = second compound 0.1 µM, first compound 0.0949 µM
[6] = second compound 0.1 µM, first compound 0.3 µM
[7] = second compound 0.316 µM, first compound 0.000949 µM
[8] = second compound 0.316 µM, first compound 0.003 µM
[9] = second compound 0.316 µM, first compound 0.00949 µM
[10] = second compound 0.316 µM, first compound 0.03 µM
[11] = second compound 0.316 µM, first compound 0.0949 µM
[12] = second compound 0.316 µM, first compound 0.3 µM
[13] = second compound 1 µM, first compound 0.000949 µM
[14] = second compound 1 µM, first compound 0.003 µM
[15] = second compound 1 µM, first compound 0.00949 µM
[16] = second compound 1 µM, first compound 0.03 µM
[17] = second compound 1 µM, first compound 0.0949 µM
[18] = second compound 1 µM, first compound 0.3 µM
[19] = second compound 3.16 µM, first compound 0.000949 µM
[20] = second compound 3.16 µM, first compound 0.003 µM
[21] = second compound 3.16 µM, first compound 0.00949 µM
[22] = second compound 3.16 µM, first compound 0.03 µM
[23] = second compound 3.16 µM, first compound 0.0949 µM
[24] = second compound 3.16 µM, first compound 0.3 µM
[25] = second compound 10 µM, first compound 0.000949 µM
[26] = second compound 10 µM, first compound 0.003 µM
[27] = second compound 10 µM, first compound 0.00949 µM
[28] = second compound 10 µM, first compound 0.03 µM
[29] = second compound 10 µM, first compound 0.0949 µM
[30] = second compound 10 µM, first compound 0.3 µM
[31] = second compound 0.1 µM, first compound 0.0316 µM
[32] = second compound 0.1 µM, first compound 0.1 µM
[33] = second compound 0.1 µM, first compound 0.316 µM
[34] = second compound 0.1 µM, first compound 1 µM
[35] = second compound 0.1 µM, first compound 3.16 µM
[36] = second compound 0.1 µM, first compound 10 µM
[37] = second compound 0.316 µM, first compound 0.0316 µM
[38] = second compound 0.316 µM, first compound 0.1 µM
[39] = second compound 0.316 µM, first compound 0.316 µM
[40] = second compound 0.316 µM, first compound 1 µM
[41] = second compound 0.316 µM, first compound 3.16 µM
[42] = second compound 0.316 µM, first compound 10 µM
[43] = second compound 1 µM, first compound 0.0316 µM
[44] = second compound 1 µM, first compound 0.1 µM
[45] = second compound 1 µM, first compound 0.316 µM
[46] = second compound 1 µM, first compound 1 µM
[47] = second compound 1 µM, first compound 3.16 µM
[48] = second compound 1 µM, first compound 10 µM
[49] = second compound 3.16 µM, first compound 0.0316 µM
[50] = second compound 3.16 µM, first compound 0.1 µM
[51] = second compound 3.16 µM, first compound 0.316 µM
[52] = second compound 3.16 µM, first compound 1 µM
[53] = second compound 3.16 µM, first compound 3.16 µM
[54] = second compound 3.16 µM, first compound 10 µM
[55] = second compound 10 µM, first compound 0.0316 µM
[56] = second compound 10 µM, first compound 0.1 µM
[57] = second compound 10 µM, first compound 0.316 µM
[58] = second compound 10 µM, first compound 1 µM
[59] = second compound 10 µM, first compound 3.16 µM
[60] = second compound 10 µM, first compound 10 µM

With Nc1ccn(C2OC(CO)C(O)C2(F)F)c(=O)n1 (stereo not given) + NC1CCC(NC2CC2c2ccccc2)CC1 the pIC50 (second compound 0.1 µM) was under 6.52, the pIC50 (second compound 0.316 µM) was under 6.52 and the pIC50 (second compound 1 µM) was under 6.52. For the same molecule, the pIC50 (second compound 3.16 µM) was under 6.52, the pIC50 (second compound 10 µM) was under 6.52 and the viability, T/C [1] was 104%. The viability, T/C [2] was 98.6%, the viability, T/C [3] was 85.9% and the viability, T/C [4] was 65.1%. For the same molecule, the viability, T/C [5] was 61.8%, the viability, T/C [6] was 68.1% and the viability, T/C [7] was 96.8%. The viability, T/C [8] was 99.3%, the viability, T/C [9] was 93.7% and the viability, T/C [10] was 69.2%. For the same molecule, the viability, T/C [11] was 59.2%, the viability, T/C [12] was 70.3% and the viability, T/C [13] was 97.3%. It also gave a viability, T/C [14] of 96.7%, a viability, T/C [15] of 85% and a viability, T/C [16] of 63.9%. It also gave a viability, T/C [17] of 64.2%, a viability, T/C [18] of 63.5% and a viability, T/C [19] of 99.7%. It also gave a viability, T/C [20] of 103%, a viability, T/C [21] of 88.2% and a viability, T/C [22] of 63.8%. The viability, T/C [23] was 63.8%, the viability, T/C [24] was 68.3% and the viability, T/C [25] was 94.2%. For the same molecule, the viability, T/C [26] was 108%, the viability, T/C [27] was 86.5% and the viability, T/C [28] was 75.6%. It also gave a viability, T/C [29] of 65% and a viability, T/C [30] of 67.4%.
Work on CCc1c2c(nc3ccc(O)cc13)-c1cc3c(c(=O)n1C2)COC(=O)[C@]3(O)CC + NC1CC1c1ccc(-c2cccc(O)c2)cc1 yielded a pIC50 (second compound 0.1 µM) of 8.08, a pIC50 (second compound 0.316 µM) of 8.02 and a pIC50 (second compound 1 µM) of 8.04. It also gave a pIC50 (second compound 3.16 µM) of 8.17, a pIC50 (second compound 10 µM) of 8.23 and a viability, T/C [1] of 119%. For the same molecule, the viability, T/C [2] was 111%, the viability, T/C [3] was 42% and the viability, T/C [4] was 4.2%. The viability, T/C [5] was 1.09%, the viability, T/C [6] was 0.82% and the viability, T/C [7] was 107%. It also gave a viability, T/C [8] of 93.1%, a viability, T/C [9] of 52.4% and a viability, T/C [10] of 4.27%. It also gave a viability, T/C [11] of 1.53%, a viability, T/C [12] of 1.11% and a viability, T/C [13] of 112%. It also gave a viability, T/C [14] of 94.9%, a viability, T/C [15] of 51.1% and a viability, T/C [16] of 3.65%. It also gave a viability, T/C [17] of 1.2%, a viability, T/C [18] of 0.86% and a viability, T/C [19] of 102%. For the same molecule, the viability, T/C [20] was 81.2%, the viability, T/C [21] was 37.8% and the viability, T/C [22] was 2.23%. For the same molecule, the viability, T/C [23] was 1.01%, the viability, T/C [24] was 0.7% and the viability, T/C [25] was 90.9%. The viability, T/C [26] was 82.7%, the viability, T/C [27] was 27.4% and the viability, T/C [28] was 1.9%. For the same molecule, the viability, T/C [29] was 0.86% and the viability, T/C [30] was 0.72%.
In the case of CC1(C)CCC(CN2CCN(c3ccc(C(=O)NS(=O)(=O)c4ccc(NCC5CCOCC5)c([N+](=O)[O-])c4)c(Oc4cnc5[nH]ccc5c4)c3)CC2)=C(c2ccc(Cl)cc2)C1 + NC1CCC(NC2CC2c2ccccc2)CC1, the pIC50 (second compound 0.1 µM) was 5.29, the pIC50 (second compound 0.316 µM) was 5.28 and the pIC50 (second compound 1 µM) was 5.23. It also gave a pIC50 (second compound 3.16 µM) of 5.25, a pIC50 (second compound 10 µM) of 5.22 and a viability, T/C [31] of 98.8%. The viability, T/C [32] was 104%, the viability, T/C [33] was 96.8% and the viability, T/C [34] was 97.8%. For the same molecule, the viability, T/C [35] was 76%, the viability, T/C [36] was 14.6% and the viability, T/C [37] was 107%. The viability, T/C [38] was 106%, the viability, T/C [39] was 98% and the viability, T/C [40] was 98%. It also gave a viability, T/C [41] of 78.3%, a viability, T/C [42] of 13.2% and a viability, T/C [43] of 101%. For the same molecule, the viability, T/C [44] was 103%, the viability, T/C [45] was 101% and the viability, T/C [46] was 106%. For the same molecule, the viability, T/C [47] was 89.1%, the viability, T/C [48] was 16.5% and the viability, T/C [49] was 109%. It also gave a viability, T/C [50] of 104%, a viability, T/C [51] of 95.4% and a viability, T/C [52] of 102%. For the same molecule, the viability, T/C [53] was 82.8%, the viability, T/C [54] was 16.6% and the viability, T/C [55] was 104%. For the same molecule, the viability, T/C [56] was 101%, the viability, T/C [57] was 99.2% and the viability, T/C [58] was 103%. It also gave a viability, T/C [59] of 86.4% and a viability, T/C [60] of 21%.
In the case of CC1COCCN1c1cc(C2(S(C)(=N)=O)CC2)nc(-c2ccnc3[nH]ccc23)n1 (stereo not given) + NC1CC1c1ccc(-c2cccc(O)c2)cc1, the pIC50 (second compound 0.1 µM) was under 5.00, the pIC50 (second compound 0.316 µM) was under 5.00 and the pIC50 (second compound 1 µM) was under 5.00. The pIC50 (second compound 3.16 µM) was under 5.00, the pIC50 (second compound 10 µM) was under 5.00 and the viability, T/C [31] was 97.7%. It also gave a viability, T/C [32] of 88.3%, a viability, T/C [33] of 92.2% and a viability, T/C [34] of 89.1%. The viability, T/C [35] was 73.9%, the viability, T/C [36] was 63.6% and the viability, T/C [37] was 97.3%. It also gave a viability, T/C [38] of 95.8%, a viability, T/C [39] of 88% and a viability, T/C [40] of 89.6%. For the same molecule, the viability, T/C [41] was 77.1%, the viability, T/C [42] was 64.5% and the viability, T/C [43] was 98.2%. For the same molecule, the viability, T/C [44] was 93.1%, the viability, T/C [45] was 108% and the viability, T/C [46] was 89.2%. For the same molecule, the viability, T/C [47] was 67.7%, the viability, T/C [48] was 62% and the viability, T/C [49] was 103%. It also gave a viability, T/C [50] of 96.8%, a viability, T/C [51] of 93.9% and a viability, T/C [52] of 85.6%. For the same molecule, the viability, T/C [53] was 70.2%, the viability, T/C [54] was 61.5% and the viability, T/C [55] was 94.8%. For the same molecule, the viability, T/C [56] was 102%, the viability, T/C [57] was 93% and the viability, T/C [58] was 91.6%. The viability, T/C [59] was 71.3% and the viability, T/C [60] was 64.3%.
